Results from US20230372346A1, “TREATMENT REGIMENS FOR EXON-20 INSERTION MUTANT EGFR CANCERS” (CULLINAN PEARL CORP., priority 2020, published 2023).

Tests used:
[1] = Phase 1/2a study, safety and adverse events (CTCAE v5); assay type: in vivo, human
Description: This is a Phase 1/2a, open-label, multicenter, first-in-human trial to evaluate the safety and tolerability, PK, PD, and preliminary efficacy of CLN-081 in patients with non-small cell lung cancer (NSCLC) harboring epidermal growth factor receptor (EGFR) exon 20 insertion mutations.
DLTs will be determined based on the incidence and intensity of AEs related to CLN-081 (excluding toxicities clearly related to disease progression or other inter-current illness) as defined below. Dose escalation decisions will be determined based on DLT that occur during the 21 days after initiation of CLN-081 dosing. AEs meeting the definition of a DLT that are observed after 21 days will be made available to the SRC in case a pattern of late toxicity emerges. Toxicity will be graded by the Common Toxicity Criteria for Adverse Events (CTCAE) v5.0. Patients who experience AEs meeting the criteria for DLT should pause treatment with CLN-081 pending management and resolution of the event, and assessment of the relationship of the AE to CLN-081 administration.
Safety and tolerability will be assessed by the incidence and severity of AEs as determined by CTCAE v5.

[2] = system: Ba/F3 cell lines harboring EGFR with mutations in exon 18 or exon 21; details: cited from earlier work
[3] = 44/45 patients, all dose levels

SMILES: C=CC(=O)N[C@H]1C=C(C)c2c(-c3cnc4ccccc4c3)c3c(N)ncnc3n2C1 [Compound 1, (S)—N-(4-amino-6-methyl-5-(quinolin-3-yl)-8,9-dihydropyrimido[5,4-b]indolizin-8-yl)acrylamide]
- patients with treatment-related discontinuations ([1]; 4 patients): 9%
- patients requiring dose reductions ([1]; 5 patients): 11%
- patients who experienced Gr ≥3 TRAEs ([1]; 8/45 patients, all dose levels): 18%
- patients who experienced grade ≥3 AEs ([1]; 20/45 patients, all dose levels): 44%
- patients who experienced a treatment related adverse event (TRAE), irrespective of grade [1, 3]: 98%
- patients who experienced an adverse event (AE), irrespective of grade or attribution [1, 3]: 98%
- patients with dose limiting toxicity (DLT) ([1]; Gr 3 diarrhea at 150 mg BID, the highest dose cohort, listed as CLN-081): One and one
- Grade ≥3 TRAEs in all patients: Anemia, % ([1]; N = 45): 9%
- Grade ≥3 TRAEs in all patients: Diarrhea, % ([1]; N = 45): 2%
- Grade ≥3 TRAEs in all patients: Increased ALT, % ([1]; N = 45): 4%
- Grade ≥3 TRAEs in all patients: Increased AST, % ([1]; N = 45): 4%
- Grade ≥3 TRAEs in all patients: Increased Amylase, % ([1]; N = 45): 2%
- Grade ≥3 TRAEs in all patients: Neutropenia, % ([1]; N = 45): 2%
- Grade ≥3 TRAEs in all patients: Stomatitis, % ([1]; N = 45): 2%
- patients with Gr ≥3 treatment-related rash ([1]; all dose levels): no patients
- patients with treatment-related Gr 3 diarrhea ([1]; all dose levels): one
- TRAEs in ≥15% of patients: Anemia, % ([1]; any grade, N = 45): (18) %
- TRAEs in ≥15% of patients: Diarrhea, % ([1]; any grade, N = 45): (22) %
- TRAEs in ≥15% of patients: Dry Skin, % ([1]; any grade, N = 45): (16) %
- TRAEs in ≥15% of patients: Increased AST, % ([1]; any grade, N = 45): (16) %
- TRAEs in ≥15% of patients: Nausea, % ([1]; any grade, N = 45): (18) %
- TRAEs in ≥15% of patients: Paronychia, % ([1]; any grade, N = 45): (22) %
- TRAEs in ≥15% of patients: Rash, % ([1]; any grade, N = 45): (76) %
- TRAEs in ≥15% of patients: Stomatitis, % ([1]; any grade, N = 45): (18) %
- diarrhea compared to historical experience with other EGFR inhibitors ([1]; in vivo): reduced frequency and severity of diarrhea
- most common AEs, regardless of attribution or grade ([1]; in vivo): rash, anemia and diarrhea
- safety profile ([1]; in vivo): acceptable safety profile
- safety profile at efficacious dose levels compared to other TKIs targeting EGFR exon 20 insertion mutations ([1]; in vivo): superior safety profile
- patients who discontinued due to treatment-related Gr 2 pneumonitis ([1]; patient had also experienced pneumonitis on osimertinib): one
- selectivity index compared to osimertinib ([2]; T790M in addition to either G719A or L861Q): higher
- selectivity index (ratio between IC50 for WT EGFR and mutant EGFR cell lines) compared to erlotinib and afatinib [2]: much higher
